Assay [1] concerns the target T1, human Cystic Fibrosis Transmembrane Conductance Regulator (CFTR) harboring the ΔF508 mutation (Homo sapiens, UniProt P13569, DEL508-508).
T1 construct: expressed in transfected cells; host or cells: H441 carcinoma line (G418-selected)
Kind of assay: H441 cell ΔF508-CFTR-HRP cell surface assay (Emax and EC50). As to conditions: for Emax: NCI-H441, NA = Not active. The assay is classed as cell-based. The procedure, abridged: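 H441 and 41o- bronchial epithelial cells expressing ΔF508-CFTR with an extracellular-loop-4 HRP tag were treated with a 15-point compound series (24.5–0.001 μM) for two nights, H441 at 27° C, 41o- at 37° C with 0.0005 mg/ml doxycycline. Surface HRP luminescence read; % of maximum VX809 signal and EC50 derived.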

Assay [2] addresses T2, CFTR-mediated transepithelial chloride transport in primary human bronchial epithelial cells from a ΔF508 homozygous CF donor (Homo sapiens, UniProt P13569, DEL508-508).
T2 construct: Primary human bronchial epithelial cells from a ΔF508 homozygous CF donor; host or cells: primary CF-HBE cells, ΔF508 homozygous donor
The experiment in a line: TECC24 recording of CFTR-mediated transepithelial chloride transport in CF-HBE cells (AUC fold over DMSO). The assay is classed as cell-based. As to conditions: test agent 10 μM, 48 hours incubation, AUC of forskolin-stimulated IEQ relative to DMSO. The procedure, abridged:
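Equivalent Cl⁻ current was derived from transepithelial voltage and resistance, and its AUC from forskolin (10 μM) to CFTRinh-172 (20 μM) was divided by the DMSO AUC. Benzamil 10 μM blocked ENaC. Cells were ΔF508-homozygous primary bronchial epithelia pretreated 48 h at 36.5 °C in IL-13 medium.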

The EC50 is the concentration at which the effect is half-maximal. Read a high EC50 as weaker potency. The term Emax denotes the maximal effect, on the per cent scale that the assay sets.

Structures are written as SMILES.

T2 sequence (P13569 with tags, fused parts or gaps DEL508-508): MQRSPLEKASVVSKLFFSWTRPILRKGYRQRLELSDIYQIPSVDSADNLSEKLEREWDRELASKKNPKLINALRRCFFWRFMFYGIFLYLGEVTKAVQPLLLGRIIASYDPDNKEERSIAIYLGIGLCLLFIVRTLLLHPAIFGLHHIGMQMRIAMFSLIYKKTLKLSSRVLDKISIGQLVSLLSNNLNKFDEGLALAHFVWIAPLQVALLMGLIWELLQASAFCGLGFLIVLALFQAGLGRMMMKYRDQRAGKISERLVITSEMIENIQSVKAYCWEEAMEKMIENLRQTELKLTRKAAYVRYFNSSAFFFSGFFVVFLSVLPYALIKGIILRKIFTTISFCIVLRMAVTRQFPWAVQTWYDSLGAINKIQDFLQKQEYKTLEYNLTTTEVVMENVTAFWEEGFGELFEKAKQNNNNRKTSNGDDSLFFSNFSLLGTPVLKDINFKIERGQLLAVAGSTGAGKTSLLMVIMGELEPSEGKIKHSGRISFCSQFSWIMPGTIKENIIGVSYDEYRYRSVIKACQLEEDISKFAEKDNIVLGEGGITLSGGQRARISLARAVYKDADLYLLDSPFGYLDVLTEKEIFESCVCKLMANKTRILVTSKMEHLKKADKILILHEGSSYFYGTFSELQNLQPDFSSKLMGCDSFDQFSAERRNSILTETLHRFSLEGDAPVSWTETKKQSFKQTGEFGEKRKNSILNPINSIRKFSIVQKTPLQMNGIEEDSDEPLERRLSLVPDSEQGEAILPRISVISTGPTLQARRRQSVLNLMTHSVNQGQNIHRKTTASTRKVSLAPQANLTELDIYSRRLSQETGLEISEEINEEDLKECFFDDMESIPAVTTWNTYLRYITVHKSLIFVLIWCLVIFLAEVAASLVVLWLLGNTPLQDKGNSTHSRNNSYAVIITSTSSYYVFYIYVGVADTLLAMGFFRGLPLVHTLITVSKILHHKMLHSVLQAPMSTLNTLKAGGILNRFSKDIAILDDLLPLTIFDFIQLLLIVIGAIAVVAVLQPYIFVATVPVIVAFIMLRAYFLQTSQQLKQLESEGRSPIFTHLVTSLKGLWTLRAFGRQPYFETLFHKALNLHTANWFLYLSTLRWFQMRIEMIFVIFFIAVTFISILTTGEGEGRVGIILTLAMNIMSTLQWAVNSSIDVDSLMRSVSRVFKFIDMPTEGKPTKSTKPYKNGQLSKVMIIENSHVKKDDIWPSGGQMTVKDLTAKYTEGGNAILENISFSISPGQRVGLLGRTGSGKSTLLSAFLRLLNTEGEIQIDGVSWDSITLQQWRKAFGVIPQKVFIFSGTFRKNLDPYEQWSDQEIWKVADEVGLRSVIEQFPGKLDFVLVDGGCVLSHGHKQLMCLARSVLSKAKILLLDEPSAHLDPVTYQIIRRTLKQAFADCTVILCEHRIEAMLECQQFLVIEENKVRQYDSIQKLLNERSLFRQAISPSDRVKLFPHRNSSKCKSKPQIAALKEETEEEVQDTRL
T1 sequence (P13569 with tags, fused parts or gaps DEL508-508): as above

In assay [1], `O=C(N[C@H](C(=O)O)C(c1ccccc1)c1ccccc1)c1ccc2cc(F)ccc2c1OCC1CCCCC1` [Example 203] registered an EC50 of 0.8 µM and an Emax of 101%. In assay [2], the “TECC24 AUC fold over DMSO @10 μM” value is reported as “C (“C” refers to AUC @10 uM <4)”.
As for `CC(C)(C)C[C@H](NC(=O)c1ccc2cc(F)ccc2c1OCC1CCCCC1)C(=O)O` [Example 205, (S)-2-(1-(cyclohexylmethoxy)-6-fluoro-2-naphthamido)-4,4-dimethylpentanoic Acid], in assay [1], the EC50 was found to be 4.8 µM and the Emax amounted to 92.2%. Moreover, the “TECC24 AUC fold over DMSO @10 μM” value in assay [2] was “C (“C” refers to AUC @10 uM <4)”.
In assay [1], `O=C(N[C@@H](Cc1ccc(C(F)(F)F)cc1)C(=O)O)c1ccc2cc(F)ccc2c1OCc1ccc(Cl)c(Cl)c1` [Example 210, (S)-2-(1-((3,4-dichlorobenzyl)oxy)-6-fluoro-2-naphthamido)-3-(4-(trifluoromethyl)phenyl)propanoic Acid] returned an EC50 of 4.3 µM and a maximal response (Emax) of 38.8%. In addition, the “TECC24 AUC fold over DMSO @10 μM” value in assay [2] was “C (“C” refers to AUC @10 uM <4)”.
For `O=C(N[C@H](C(=O)O)C(c1ccccc1)c1ccccc1)c1ccc2ccccc2c1OCc1nc2ccccc2s1` [Example 212, (S)-2-(1-(benzo[d]thiazol-2-ylmethoxy)-2-naphthamido)-3,3-diphenylpropanoic Acid], in that order: 1.2 µM, 141% and “C (“C” refers to AUC @10 uM <4)”.
In assay [1], `CC(C)(C)C[C@H](NC(=O)c1ccc2ccccc2c1OCc1nc2ccccc2s1)C(=O)O` [Example 214, (S)-2-(1-(benzo[d]thiazol-2-ylmethoxy)-2-naphthamido)-4,4-dimethylpentanoic Acid] registered an EC50 of 3.4 µM and an Emax of 112%. In assay [2], the “TECC24 AUC fold over DMSO @10 μM” value is “C (“C” refers to AUC @10 uM <4)”.
For `O=C(N[C@H](C(=O)O)C(c1ccccc1)c1ccccc1)c1ccc2cc(F)ccc2c1OCc1nc2ccccc2s1` [Example 216, (S)-2-(1-(benzo[d]thiazol-2-ylmethoxy)-6-fluoro-2-naphthamido)-3,3-diphenylpropanoic Acid], in that order: 0.9 µM, 115% and “C (“C” refers to AUC @10 uM <4)”.
In assay [1], `O=C(N[C@@H](Cc1ccc(C(F)(F)F)cc1)C(=O)O)c1ccc2cc(F)ccc2c1OCc1nc2ccccc2s1` [Example 217, (S)-2-(1-(benzo[d]thiazol-2-ylmethoxy)-6-fluoro-2-naphthamido)-3-(4-(trifluoromethyl)phenyl)propanoic Acid] gave an EC50 of 15.9 µM and a maximal effect (Emax) of 65.8%. In addition, in assay [2], the “TECC24 AUC fold over DMSO @10 μM” value is on record as “C (“C” refers to AUC @10 uM <4)”.
For `CC(C)(C)C[C@H](NC(=O)c1ccc2cc(F)ccc2c1OCc1nc2ccccc2s1)C(=O)O` [Example 218, (S)-2-(1-(benzo[d]thiazol-2-ylmethoxy)-6-fluoro-2-naphthamido)-4,4-dimethylpentanoic Acid], in that order: 4.8 µM, 86.8% and “C (“C” refers to AUC @10 uM <4)”.
With `C#CC(C)(C)C(NC(=O)c1ccc2ccc(C)cc2c1OCc1ccc(C(F)(F)F)cc1)C(=O)O` (stereo not drawn) [Example 219, 3,3-dimethyl-2-[[7-methyl-1-[[4-(trifluoromethyl)phenyl]methoxy]naphthalene-2-carbonyl]amino]pent-4-ynoic Acid], in assay [1], a half-maximal effect (EC50) was put at 0.4 µM and the Emax was 191%. Also, the “TECC24 AUC fold over DMSO @10 μM” value in assay [2] is “A (“A” refers to AUC @10 uM >6)”.
For `CC(C)(C)[C@H](NC(=O)c1ccc2c(F)cccc2c1OCc1ccc(OC(F)(F)F)cc1)C(=O)O` [Example 221, (2S)-2-[[5-fluoro-1-[[4-(trifluoromethoxy)phenyl]methoxy]naphthalene-2-carbonyl]amino]-3,3-dimethyl-butanoic Acid], in that order: 1.2 µM, 125% and “A (“A” refers to AUC @10 uM >6)”.

Source of the values: patent US12630498B2 (Genzyme Corporation, priority 2019, dated 2026).
